# Columns and labels:
# MLKL (full length) = MLKL (full length) (Homo sapiens (Human), UniProt Q8NB16); assay: KINOMEscan binding assay, MLKL (full length); conditions: Table 36
# Description: Kinase assays. For most assays, kinase-tagged T7 phage strains were grown in parallel in 24-well blocks in an E. coli host derived from the BL21 strain. E. coli were grown to log-phase and infected with T7 phage from a frozen stock (multiplicity of infection=0.4) and incubated with shaking at 32° C. until lysis (90-150 minutes).
# The Hill Slope was set to −1.
# [1] = tested on: U937 human histiocytic leukemia cell line; assay: Cellular assay: inhibition of TSQ induced necroptosis (CellTitre-Glo); conditions: Homo sapiens, U-937; U937 cells, TSQ cocktail, 48 hours, Table 38; read-out: Inhibition of TSQ-induced necroptosis (IC50 cell-based assay)
# How it was run: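 U937 cells (20,000/well) pre-dosed with compound (10-point, 1:3 from 36 μM, 0.3% DMSO), then TSQ (hTNF-Fc 100 ng/ml, Smac mimetic 500 nM, Q-VD-OPh 10 μM) for 48 h at 37 °C. Viability by CellTiter-Glo luminescence, normalised to DMSO (100%) and DMSO+TSQ (0%); IC50 from 4-parameter fit.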
# U937 cells = assay: Counter screen: cell viability without TSQ cocktail (off-target effect); set-up: species or system human; conditions: Homo sapiens, U-937, Table 38, read-out: Off-target effect (IC50 cell-based assay)
# Description: Counter screen: In parallel, all compounds were tested for their ability to affect cell viability. The same U937 cells were treated with compound in DMSO without the TSQ cocktail. This counter screen enabled evaluation of off-target effects. In this case, cell viability was measured by CelltiterGlo.
# endogenous MLKL in U937 = endogenous MLKL in U937 (Homo sapiens (Human), UniProt Q8NB16); assay: Degradation assay: degradation of endogenous MLKL in human cells (Western blot); conditions: 24 h incubation, read-out: Degradation of endogenous MLKL in U937 (DC50 cell-based assay in μM)
# Description: DEGRADATION ASSAY: Screening Compounds Procedure to Evaluate the Activity of Compounds in Degrading Endogenous MLKL in Human Cell
# The human monocyte cell line (U937) was seeded on the day of the experiment in a 24-well plate at a cell density of 5*10^5 cells per well in a volume of 0.5 mL per well.
# The compound was diluted in DMSO with a starting concentration of 10 mM and titrated stepwise with a dilution of 1:5. 0.5 μL of the compound dilution was added to the appropriate well to achieve a final concentration of 10; 2; 0.4; 0.08 and 0.016 μM. A DMSO only well was included as control.
# The cells were incubated for 24 h in the presence of the compound at 37° C. and 10% CO2.
# After the 24 h incubation period, the medium was removed and cells washed with 0.5 mL PBS. The cells were then lysed directly in 60 μL of 1×SDS gel loading buffer.
# The cell lysate was heat-denatured at […] for 10 min. 10 μL of lysate per well were run on 18-well 4-15% Criterion TGX stain free gels (BIO-RAD). The proteins were then transferred onto nitrocellulose membrane with a wet transfer protocol in the Criterion Blotter (BIO-RAD).
# Membranes were blocked with 5% skim milk in TBST. Primary antibody against MLKL (clone 3H1, MABC604 Merck) was used at 1:2000 dilution in TBST with 1% BSA and left shaking over night at 4° C. After washes with TBST, the membranes were incubated with goat anti-rat IgG HRP-conjugated antibody (Southern Biotech) in 1% skim milk TBST at 1:10000 dilution for 1 h at room temperature. After TBST washes the bands were imaged on the ChemiDoc MP Imaging Systm (BIO-RAD) with Immobilion Western Chemiluminescent HRP Substrate Forte (Millipore). The loading control GAPDH was probed for with rabbit anti-GAPDH (CST 14C10) at 1:2000 dilution in 1% BSA TBST over night at 4° C. TBST washes were followed by incubation with goat anti-rabbit IgG HRP-conjugated antibody (Southern Biotech) in 1% skim milk TBST at 1:10000 dilution for 1 h at room temperature followed by TBST washes. The signal was detected as described above.
# The band intensity was measured in the ImageLab Software (BIO-RAD) and the MLKL values adjusted for loading with GAPDH. The percentage of degradation was calculated by normalizing the compound treated values to the DMSO only control.
# MLKL = MLKL (Homo sapiens (Human), UniProt Q8NB16); assay: Binding to MLKL (KD), in vitro; conditions: in vitro assays
# Chain of MLKL (Q8NB16 whole entry): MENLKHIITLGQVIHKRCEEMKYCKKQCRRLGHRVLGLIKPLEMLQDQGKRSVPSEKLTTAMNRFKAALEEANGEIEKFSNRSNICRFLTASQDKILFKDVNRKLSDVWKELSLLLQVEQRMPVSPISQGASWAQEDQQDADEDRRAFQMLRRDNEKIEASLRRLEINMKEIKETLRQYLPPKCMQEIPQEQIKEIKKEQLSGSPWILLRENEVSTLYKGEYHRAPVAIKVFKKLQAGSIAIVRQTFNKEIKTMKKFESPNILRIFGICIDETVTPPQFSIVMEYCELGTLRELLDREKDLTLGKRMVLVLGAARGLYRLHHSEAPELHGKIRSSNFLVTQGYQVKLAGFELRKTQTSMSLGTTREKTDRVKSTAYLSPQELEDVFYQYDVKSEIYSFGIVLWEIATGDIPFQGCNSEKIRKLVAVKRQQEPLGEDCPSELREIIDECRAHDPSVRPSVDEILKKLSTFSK
# Chain of endogenous MLKL in U937 (Q8NB16 whole entry): as above
# Chain of MLKL (full length) (Q8NB16 whole entry): as above
SMILES,Kd (MLKL (full length)),IC50 [1],IC50 (U937 cells),DC50 (endogenous MLKL in U937),Kd (MLKL)
"Cc1ncsc1-c1ccc(CNC(=O)[C@@H]2C[C@@H](O)CN2C(=O)[C@@H](NC(=O)c2ccc(Cn3ccc(Nc4[nH]nc(-c5ccc(NS(=O)(=O)C(F)F)c(O[C@@H](C)c6ccc(F)cc6)c5)c4C(N)=O)n3)cc2)C(C)(C)C)cc1 [Compound 1045, 3-[4-(difluoromethanesulfonamido)-3-[(1S)-1-(4-fluorophenyl)ethoxy]phenyl]-5-({1-[(4-{[(2S)-1-[(2S,4R)-4-hydroxy-2-({[4-(4-methyl-1,3-thiazol-5-yl)phenyl]methyl}carbamoyl)pyrrolidin-1-yl]-3,3-dimethyl-1-oxobutan-2-yl]carbamoyl}phenyl)methyl]-1H-pyrazol-3-yl}amino)-1H-pyrazole-4-carboxamide]",< 0.01 µM,< 1 µM,> 10 µM,< 1 µM,–
"Cc1ncsc1-c1ccc(CNC(=O)[C@@H]2C[C@@H](O)CN2C(=O)[C@@H](NC(=O)CCCCCOc2ccc(Nc3[nH]nc(-c4ccc(NS(=O)(=O)C(F)F)c(O[C@@H](C)c5ccc(F)cc5)c4)c3C(N)=O)nc2)C(C)(C)C)cc1 [Compound 1048, 3-[4-(difluoromethanesulfonamido)-3-[(1S)-1-(4-fluorophenyl)ethoxy]phenyl]-5-({5-[(5-{[(2S)-1-[(2S,4R)-4-hydroxy-2-({[4-(4-methyl-1,3-thiazol-5-yl)phenyl]methyl}carbamoyl)pyrrolidin-1-yl]-3,3-dimethyl-1-oxobutan-2-yl]carbamoyl}pentyl)oxy]pyridin-2-yl}amino)-1H-pyrazole-4-carboxamide]",< 0.01 µM,< 1 µM,> 10 µM,< 1 µM,–
"Cc1ncsc1-c1ccc(CNC(=O)[C@@H]2C[C@@H](O)CN2C(=O)[C@@H](NC(=O)CN2CCC(Oc3ccc(Nc4[nH]nc(-c5ccc(NS(=O)(=O)C(F)F)c(O[C@@H](C)c6ccc(F)cc6)c5)c4C(N)=O)nc3)CC2)C(C)(C)C)cc1 [Compound 1050, 3-[4-(difluoromethanesulfonamido)-3-[(1S)-1-(4-fluorophenyl)ethoxy]phenyl]-5-[(5-{[1-({[(2S)-1-[(2S,4R)-4-hydroxy-2-({[4-(4-methyl-1,3-thiazol-5-yl)phenyl]methyl}carbamoyl)pyrrolidin-1-yl]-3,3-dimethyl-1-oxobutan-2-yl]carbamoyl}methyl)piperidin-4-yl]oxy}pyridin-2-yl)amino]-1H-pyrazole-4-carboxamide]",0.01 to 1 µM,1 to 10 µM,> 10 µM,< 1 µM,–
"Cc1ncsc1-c1ccc(CNC(=O)[C@@H]2C[C@@H](O)CN2C(=O)[C@@H](NC(=O)CCCCOC(=O)c2ccc(Nc3[nH]nc(-c4ccc(NS(=O)(=O)C(F)F)c(O[C@@H](C)c5ccc(F)cc5)c4)c3C(N)=O)nc2)C(C)(C)C)cc1 [Compound 1051, 4-{[(2S)-1-[(2S,4R)-4-hydroxy-2-({[4-(4-methyl-1,3-thiazol-5-yl)phenyl]methyl}carbamoyl)pyrrolidin-1-yl]-3,3-dimethyl-1-oxobutan-2-yl]carbamoyl}butyl 6-({4-carbamoyl-3-[4-(difluoromethanesulfonamido)-3-[(1S)-1-(4-fluorophenyl)ethoxy]phenyl]-1H-pyrazol-5-yl}amino)pyridine-3-carboxylate]",0.01 to 1 µM,1 to 10 µM,> 10 µM,1 to 10 µM,–
Cc1ncsc1-c1ccc(CNC(=O)[C@@H]2C[C@@H](O)CN2C(=O)[C@@H](NC(=O)CCCCOC(=O)c2ccc(Nc3[nH]nc(-c4ccc(NS(=O)(=O)C(F)F)c(F)c4)c3C(N)=O)nc2)C(C)(C)C)cc1 [Compound 1053],< 0.01 µM,1 to 10 µM,> 10 µM,1 to 10 µM,–
"CCS(=O)(=O)Nc1ccc(-c2n[nH]c(Nc3ccc(C(=O)OCCCCCC(=O)N[C@H](C(=O)N4C[C@H](O)C[C@H]4C(=O)NCc4ccc(-c5scnc5C)cc4)C(C)(C)C)cn3)c2C(N)=O)cc1O[C@@H](C)c1ccc(F)cc1 [Compound 1057, 5-{[(2S)-1-[(2S,4R)-4-hydroxy-2-({[4-(4-methyl-1,3-thiazol-5-yl)phenyl]methyl}carbamoyl)pyrrolidin-1-yl]-3,3-dimethyl-1-oxobutan-2-yl]carbamoyl}pentyl 6-[(4-carbamoyl-3-{4-ethanesulfonamido-3-[(1S)-1-(4-fluorophenyl)ethoxy]phenyl}-1H-pyrazol-5-yl)amino]pyridine-3-carboxylate]",< 0.01 µM,< 1 µM,> 10 µM,< 1 µM,–
"CCS(=O)(=O)Nc1ccc(-c2n[nH]c(Nc3ccc(C(=O)OCCCCCCC(=O)N[C@H](C(=O)N4C[C@H](O)C[C@H]4C(=O)NCc4ccc(-c5scnc5C)cc4)C(C)(C)C)cn3)c2C(N)=O)cc1O[C@@H](C)c1ccc(F)cc1 [Compound 1058, 6-{[(2S)-1-[(2S,4R)-4-hydroxy-2-({[4-(4-methyl-1,3-thiazol-5-yl)phenyl]methyl}carbamoyl)pyrrolidin-1-yl]-3,3-dimethyl-1-oxobutan-2-yl]carbamoyl}hexyl 6-[(4-carbamoyl-3-{4-ethanesulfonamido-3-[(1S)-1-(4-fluorophenyl)ethoxy]phenyl}-1H-pyrazol-5-yl)amino]pyridine-3-carboxylate]",0.01 to 1 µM,< 1 µM,> 10 µM,< 1 µM,–
"CCS(=O)(=O)Nc1ccc(-c2n[nH]c(Nc3ccc(C(=O)OCCCCC(=O)N[C@H](C(=O)N4C[C@H](O)C[C@H]4C(=O)NCc4ccc(-c5scnc5C)cc4)C(C)(C)C)cn3)c2C#N)cc1O[C@@H](C)c1ccc(F)cc1 [Compound 1061, 4-{[(2S)-1-[(2S,4R)-4-hydroxy-2-({[4-(4-methyl-1,3-thiazol-5-yl)phenyl]methyl}carbamoyl)pyrrolidin-1-yl]-3,3-dimethyl-1-oxobutan-2-yl]carbamoyl}butyl 6-[(4-cyano-3-{4-ethanesulfonamido-3-[(1S)-1-(4-fluorophenyl)ethoxy]phenyl}-1H-pyrazol-5-yl)amino]pyridine-3-carboxylate]",–,–,–,–,~2 µM
